Measurements as given in patent US12599559B2, “CD1d-ligand-compound-containing liposome preparation having improved pharmacokinetics” (REGiMMUNE Corporation, priority 2020, dated 2026).
Where two headings read alike, the source gives them in different places.

Assay: pharmacokinetics in human clinical trials, plasma KRN7000 by LC-MS/MS
Format: in vivo
Settings: patients; for Cmax / AUC(0-t): plasma, iv
Description: In a phase I clinical trial, RGI-2001-001 was administered intravenously at a dose of 100 μg/kg as KRN7000 within 30 minutes after transplantation to six patients who had received hematopoietic stem cell transplantation. 2 mL of peripheral blood was collected before and 0.5, 1, 2, 4, 6, 8, 24, 48, 72, and 96 hours after transplantation, respectively, and plasma components were collected. KRN7000 in each plasma was separated and identified by liquid chromatography-mass spectrometry (LC-MS/MS).
Similarly, RGI-2001-003 was administered intravenously at a dose of 100 μg/kg as KRN7000 within 30 minutes after transplantation to seven patients who had received hematopoietic stem cell transplantation, and 2 mL of peripheral blood was collected before and 0.5, 2, 4, 6, 8, 24, and 48 hours after transplantation. Plasma components were collected, and plasma KRN7000 was separated and identified by LC-MS/M. These patients were treated with RGI-2001-003 at a dose of 100 μg/kg as KRN7000 intravenously once a week for 5 to 6 consecutive doses. For the administration on day 14, 2 mL of peripheral blood was collected before and 0.5 and 4 hours after administration, respectively, plasma components were collected, and plasma KRZN7000 was separated and identified by LC-MS/M. The NKT response and the number of activated Tregs (Ki-67+%) in patients treated with RGI-2001-003 administration were monitored over time.

[1] = 100 ug/kg, plasma KRN7000 after RGI-2001-003 iv 100 μg/kg weekly, Day 0

concentration at 14 day (100 μg/kg as KRN7000, plasma KRN7000 after RGI-2001-003 iv 100 μg/kg weekly, Day 14, read-out: Cmin): 34.1 ng/mL
half-life [1]: 35.8 h
AUC(0-inf) (100 ug/kg, plasma KRN7000 after RGI-2001-003 iv 100 μg/kg weekly, Day 0, read-out: *Est. AUC0-inf): 42500 ng·h/mL
Cmax [1]: 881 ng/mL
AUC(0-t) (100 ug/kg, plasma KRN7000 after RGI-2001-003 iv 100 μg/kg weekly, Day 0, read-out: AUC0-4): 3000 ng·h/mL
Cmax (100 ug/kg, plasma KRN7000 after RGI-2001-003 iv 100 μg/kg weekly, Day 14): 570 ng/mL
AUC(0-t) (100 ug/kg, plasma KRN7000 after RGI-2001-003 iv 100 μg/kg weekly, Day 14, read-out: AUC0-4): 1890 ng·h/mL
Structure (SMILES): CCCCCCCCCCCCCCCCCCCCCCCCCC(=O)N[C@@H](CO[C@H]1OC(CO)[C@H](O)C(O)C1O)[C@H](O)[C@H](O)CCCCCCCCCCCCCC (stereo partly drawn) [KRN7000, (2S,3S,4R)-1-o-(α-D-galactopyranosyl)-2-(N-hexacosanoylamino)-1,3,4-octadecanetriol]
